The text below walks through data of patent US20250115600A1, “COVALENT MODIFIERS OF AKT1 AND USES THEREOF” (Terremoto Biosciences, Inc., priority 2022, published 2025).

Molecules are shown by their SMILES. Bounds are passed on as bounds.

What all share (test): Live cell target engagement (NanoBRET) in HEK293 cells
Holding throughout (type): cell-based
(BRET reads energy transfer from a luciferase to a nearby fluorophore.)

Test [1] concerns the target AKT1 E17K (Homo sapiens (Human), UniProt P31749, E17K). The conditions noted are these: for IC50: HEK293, 2 hours at 37° C.
In test [2] the target is AKT1 WT (Homo sapiens (Human), UniProt P31749). The following applies: HEK293, 2 hours at 37° C.
Sequence of AKT1 WT (P31749 whole entry): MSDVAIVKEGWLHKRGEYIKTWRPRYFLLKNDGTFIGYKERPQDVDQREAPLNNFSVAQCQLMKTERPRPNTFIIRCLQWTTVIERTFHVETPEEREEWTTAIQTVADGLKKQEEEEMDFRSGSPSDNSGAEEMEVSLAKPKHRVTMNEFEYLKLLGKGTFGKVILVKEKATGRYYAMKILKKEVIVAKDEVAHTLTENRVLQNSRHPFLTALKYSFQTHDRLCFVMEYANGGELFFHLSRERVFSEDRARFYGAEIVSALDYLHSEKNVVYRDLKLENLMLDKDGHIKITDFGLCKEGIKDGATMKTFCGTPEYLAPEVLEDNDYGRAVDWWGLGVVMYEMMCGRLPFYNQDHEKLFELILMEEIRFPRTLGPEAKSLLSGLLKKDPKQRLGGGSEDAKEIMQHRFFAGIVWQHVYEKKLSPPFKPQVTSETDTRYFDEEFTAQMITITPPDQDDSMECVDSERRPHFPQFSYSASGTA
Test [3] addresses AKT2 (Homo sapiens (Human), UniProt P31751). The conditions noted are these: HEK293, 2 hours at 37° C.

Sequence of AKT1 E17K (P31749 whole entry E17K): as the sequence (P31749 whole entry) above, with E17K counted along it
Sequence of AKT2 (P31751 whole entry): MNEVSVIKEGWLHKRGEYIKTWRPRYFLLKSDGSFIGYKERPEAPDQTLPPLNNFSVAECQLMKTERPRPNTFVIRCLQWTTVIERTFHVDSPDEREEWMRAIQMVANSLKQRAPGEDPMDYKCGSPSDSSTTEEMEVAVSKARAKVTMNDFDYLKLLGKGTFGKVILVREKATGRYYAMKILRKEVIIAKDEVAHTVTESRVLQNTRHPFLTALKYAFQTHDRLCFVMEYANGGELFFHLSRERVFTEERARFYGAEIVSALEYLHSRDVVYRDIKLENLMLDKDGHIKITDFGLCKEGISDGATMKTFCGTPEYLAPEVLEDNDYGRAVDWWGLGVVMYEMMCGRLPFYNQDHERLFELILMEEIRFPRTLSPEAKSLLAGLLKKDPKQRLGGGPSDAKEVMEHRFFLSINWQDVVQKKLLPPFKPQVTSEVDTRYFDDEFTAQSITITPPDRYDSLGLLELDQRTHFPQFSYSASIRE

A word on the IC50: it is the point on the concentration scale where inhibition reaches its midpoint. On to `Nc1ncccc1-c1nc2ccc(-c3ccccc3)nc2n1-c1ccc(CCNC(=O)c2ccc(C=O)c(O)c2)cc1` [Compound 111, N-(2-{4-[2-(2-aminopyridin-3-yl)-5-phenylimidazo[4,5-b]pyridin-3-yl]phenyl}ethyl)-4-formyl-3-hydroxybenzamide], for which, in test [1], the “AKT1 E17K IC50: Selectivity vs AKT1 WT” value came to 0.83, the “AKT1 E17K IC50: Selectivity vs AKT2” value is given as 6.3 and the IC50 was less than 100 nM. This compound also displayed an IC50 in test [2] of less than 100 nM. The compound further returned an IC50 in test [3] of 100 to 500 nM.
Turning to `Nc1ncccc1-c1nc2ccc(-c3ccccc3)nc2n1-c1ccc(C(=O)NCCc2ccc(C=O)c(O)c2)cn1` [Compound 112, 6-[2-(2-aminopyridin-3-yl)-5-phenylimidazo[4,5-b]pyridin-3-yl]-N-[2-(4-formyl-3-hydroxyphenyl)ethyl]pyridine-3-carboxamide], in test [1], the “AKT1 E17K IC50: Selectivity vs AKT1 WT” value was found to be 1. In addition, in test [1], the “AKT1 E17K IC50: Selectivity vs AKT2” value is 1. Moreover, the IC50 in test [1], in test [2] and in test [3] was more than 500 nM throughout.
Regarding `Nc1ncccc1-c1nc2ccc(-c3cccnc3)nc2n1-c1ccc(CNCCc2ccc(C=O)c(O)c2)cc1` [Compound 113, 4-(2-((4-(2-(2-aminopyridin-3-yl)-5-(pyridin-3-yl)-3H-imidazo[4,5-b]pyridin-3-yl)benzyl)amino)ethyl)-2-hydroxybenzaldehyde], in test [1], the “AKT1 E17K IC50: Selectivity vs AKT1 WT” value was found to be 2.5, the “AKT1 E17K IC50: Selectivity vs AKT2” value is reported as 57 and the IC50 was less than 100 nM. Further, the IC50 in test [2] was 100 to 500 nM. The same compound showed an IC50 in test [3] of more than 500 nM.
`CC(NC(=O)Cc1ccc(O)c(C=O)c1)c1ccc(-n2c(-c3cccnc3N)nc3ccc(-c4ccccc4)nc32)cc1` (centres unmarked) [Compound 115, N-(1-(4-(2-(2-aminopyridin-3-yl)-5-phenyl-3H-imidazo[4,5-b]pyridin-3-yl)phenyl)ethyl)-2-(3-formyl-4-hydroxyphenyl)acetamide]: the “AKT1 E17K IC50: Selectivity vs AKT1 WT” value in test [1] turned out to be 1.2. Also, the “AKT1 E17K IC50: Selectivity vs AKT2” value in test [1] came out at 4.9. Also, the IC50 is less than 100 nM in test [1], 100 to 500 nM in test [2] and 100 to 500 nM in test [3].
On to `CC(NC(=O)Cc1ccc(C=O)c(O)c1)c1ccc(-n2c(-c3cccnc3N)nc3ccc(-c4ccccc4)nc32)cc1` (centres unmarked) [Compound 116, N-(1-{4-[2-(2-aminopyridin-3-yl)-5-phenylimidazo[4,5-b]pyridin-3-yl]phenyl}ethyl)-2-(4-formyl-3-hydroxyphenyl)acetamide], for which the “AKT1 E17K IC50: Selectivity vs AKT1 WT” value in test [1] was 1.9. In addition, in test [1], the “AKT1 E17K IC50: Selectivity vs AKT2” value is given as 10. Further, the IC50 is less than 100 nM in test [1], less than 100 nM in test [2] and 100 to 500 nM in test [3].
`Nc1ncccc1-c1nc2ccc(-c3ccccc3)nc2n1-c1ccc(NC(=O)CCc2ccc(C=O)c(O)c2)cc1` [Compound 118, N-(4-(2-(2-aminopyridin-3-yl)-5-phenyl-3H-imidazo[4,5-b]pyridin-3-yl)phenyl)-3-(4-formyl-3-hydroxyphenyl)propanamide]: in test [1], the “AKT1 E17K IC50: Selectivity vs AKT1 WT” value is recorded as 1.6, the “AKT1 E17K IC50: Selectivity vs AKT2” value was 29 and the IC50 was less than 100 nM. In addition, the concentration for half-maximal inhibition (IC50) in test [2] is less than 100 nM. For the same compound, the IC50 in test [3] fell in the range of 100 to 500 nM.
With `Nc1ncccc1-c1nc2ccc(-c3ccncc3)nc2n1-c1ccc(CNCCc2ccc(C=O)c(O)c2)cc1` [Compound 119, 4-{2-[({4-[2-(2-aminopyridin-3-yl)-5-(pyridin-4-yl)imidazo[4,5-b]pyridin-3-yl]phenyl}methyl)amino]ethyl}-2-hydroxybenzaldehyde], in test [1], the “AKT1 E17K IC50: Selectivity vs AKT1 WT” value was 2.9, the “AKT1 E17K IC50: Selectivity vs AKT2” value came to 18 and the IC50 is less than 100 nM. In test [2], this compound came in with an IC50 of 100 to 500 nM. Moreover, in test [3], the IC50 was more than 500 nM.
For `Nc1ncccc1-c1nc2ccc(-c3ccccc3)nc2n1-c1ccc(CNCCc2ccc(C=O)c(O)c2Cl)cc1` [Compound 120, 4-{2-[({4-[2-(2-aminopyridin-3-yl)-5-phenylimidazo[4,5-b]pyridin-3-yl]phenyl}methyl)amino]ethyl}-3-chloro-2-hydroxybenzaldehyde], in that order: 0.86, 2.3, less than 100 nM, less than 100 nM and 100 to 500 nM.
The like results for `CC(=O)Nc1cccc(-c2ccc3nc(-c4cccnc4N)n(-c4ccc(CNCCc5ccc(C=O)c(O)c5)cc4)c3n2)c1` [Compound 121, N-{3-[2-(2-aminopyridin-3-yl)-3-[4-({[2-(4-formyl-3-hydroxyphenyl)ethyl]amino}methyl)phenyl]imidazo[4,5-b]pyridin-5-yl]phenyl}acetamide] were, in that order, 2, 6.2, less than 100 nM, less than 100 nM and 100 to 500 nM.
Consider `Nc1ncccc1-c1nc2ccc(-c3ccccc3)nc2n1-c1ccc(CNCCc2cc(O)c(C=O)c(F)c2)cc1` [Compound 123, 4-(2-((4-(2-(2-aminopyridin-3-yl)-5-phenyl-3H-imidazo[4,5-b]pyridin-3-yl)benzyl)amino)ethyl)-2-fluoro-6-hydroxybenzaldehyde], for which the “AKT1 E17K IC50: Selectivity vs AKT1 WT” value in test [1] was found to be 1. The “AKT1 E17K IC50: Selectivity vs AKT2” value in test [1] is 2.2. In addition, the IC50 is less than 100 nM in test [1], less than 100 nM in test [2] and 100 to 500 nM in test [3].
Regarding `Nc1ncccc1-c1nc2cc(-c3ccccc3)cnc2n1-c1ccc(CNCCc2ccc(C=O)c(O)c2)cc1` [Compound 124, 4-(2-((4-(2-(2-aminopyridin-3-yl)-6-phenyl-3H-imidazo[4,5-b]pyridin-3-yl)benzyl)amino)ethyl)-2-hydroxybenzaldehyde], in test [1], the “AKT1 E17K IC50: Selectivity vs AKT1 WT” value is given as 3.1. Also, in test [1], the “AKT1 E17K IC50: Selectivity vs AKT2” value was 13. In addition, the IC50 in test [1] was 100 to 500 nM; in test [2] it was more than 500 nM; in test [3] it was more than 500 nM.
For `CC(NCCc1ccc(O)c(C=O)c1)c1ccc(-n2c(-c3cccnc3N)nc3ccc(-c4ccccc4)nc32)cc1` (centres unmarked) [Compound 126, 5-(2-((1-(4-(2-(2-aminopyridin-3-yl)-5-phenyl-3H-imidazo[4,5-b]pyridin-3-yl)phenyl)ethyl)amino)ethyl)-2-hydroxybenzaldehyde], in test [1], the “AKT1 E17K IC50: Selectivity vs AKT1 WT” value is 5, the “AKT1 E17K IC50: Selectivity vs AKT2” value is 12 and the 50% inhibitory concentration (IC50) is less than 100 nM. This compound also displayed an IC50 in test [2] of less than 100 nM. In addition, in test [3], the IC50 was in the range of 100 to 500 nM.
Take `CC(NCCc1ccc(C=O)c(O)c1)c1ccc(-n2c(-c3cccnc3N)nc3ccc(-c4ccccc4)nc32)cc1` (centres unmarked) [Compound 127, 4v-(2-((1-(4-(2-(2-aminopyridin-3-yl)-5-phenyl-3H-imidazo[4,5-b]pyridin-3-yl)phenyl)ethyl)amino)ethyl)-2-hydroxybenzaldehyde]: in test [1], the “AKT1 E17K IC50: Selectivity vs AKT1 WT” value stood at 2.6, the “AKT1 E17K IC50: Selectivity vs AKT2” value was found to be 7.7 and the IC50 was less than 100 nM. The compound also came in with a 50% inhibitory concentration (IC50) in test [2] of less than 100 nM. Besides, in test [3], the IC50 was in the range of 100 to 500 nM.
